We go through 16 compounds from patent publication US12187713B2, “Immunomodulators, compositions and methods thereof” (Betta Pharmaceuticals Co., Ltd, priority 2019, dated 2025).

In one series the target is PD-1/PD-L1 (Homo sapiens (Human), UniProt Q9NZQ7). Briefly: PD-1/PD-L1 Binding Assay (Alphascreen). A digest of the protocol: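 PD-1/PD-L1 binding detected by anti-6×His acceptor and streptavidin donor beads after 120 min in the dark at 25 °C. Beforehand, the two proteins were incubated 15 min at 25 °C with inhibitor at 0.015–300 nM (1% DMSO). IC50 comes from a log concentration–response curve.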
Sequence of PD-1/PD-L1 (Q9NZQ7 19-238): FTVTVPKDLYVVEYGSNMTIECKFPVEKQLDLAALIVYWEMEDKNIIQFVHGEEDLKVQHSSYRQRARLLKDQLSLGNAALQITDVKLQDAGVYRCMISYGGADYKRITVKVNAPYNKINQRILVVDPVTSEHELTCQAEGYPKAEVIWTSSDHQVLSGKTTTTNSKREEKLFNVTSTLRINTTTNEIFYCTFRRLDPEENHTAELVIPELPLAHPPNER
(In general: Bead proximity is the source of the signal in Alpha formats.)

A short description of series [1]: Pharmacokinetic Assay, single oral dose 5 mg/kg (Table 12). The format is in vivo. Conditions: mouse, plasma concentration, C57 female mice, single oral dose 5 mg/kg. A digest of the protocol: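 Adult female C57 mice (n=3) got one intragastric dose of 5 mg/kg in 15% DMSO, 10% Kolliphor HS 15, 75% saline. Retro-orbital blood was taken at 30 min, 2 h and 4 h into K2-EDTA. Plasma levels were measured by LC-MS/MS.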

As usually defined, the IC50 is the point on the concentration scale where inhibition reaches its midpoint. `Cc1c(-c2ccc(CN3CCCC3)c(C#N)c2)cccc1-c1cccc(-c2nc3cc(CN4CCC[C@H]4C(=O)O)c(OC(F)F)cc3o2)c1C` [Example 245, ((2-(3″-cyano-2,2′-dimethyl-4″-(pyrrolidin-1-ylmethyl)-[1,1′:3′,1″-terphenyl]-3-yl)-6-(difluoromethoxy)benzo[d]oxazol-5-yl)methyl)-L-proline] returned an IC50 on PD-1/PD-L1 (numeric values) of 3.8 nM. In addition, in series [1], the concentration at 0.5 h came to 101 ng/mL, the concentration at 2 h is 237 ng/mL and the concentration at 4 h amounted to 191 ng/mL.
For `COc1nc(-c2cccc(-c3cccc(-c4nc5cc(CN6CCC[C@H]6C(=O)O)c(OC(F)F)cc5o4)c3C)c2C)ccc1CN1CC[C@H](C)C1` [Example 246, ((6-(difluoromethoxy)-2-(3′-(6-methoxy-5-(((S)-3-methylpyrrolidin-1-yl)methyl)pyridin-2-yl)-2,2′-dimethyl-[1,1′-biphenyl]-3-yl)benzo[d]oxazol-5-yl)methyl)-L-proline], the half-maximal inhibitory concentration (IC50) at PD-1/PD-L1 (numeric values) was 1.8 nM. In series [1], this compound had a concentration at 0.5 h of 87.2 ng/mL, a concentration at 2 h of 261 ng/mL and a concentration at 4 h of 285 ng/mL.
Compound `Cc1c(-c2ccc(CN3CC[C@@H](c4ccccc4)C3)c(F)c2)cccc1-c1cccc(-c2nc3cc(CN4CCC[C@H]4C(=O)O)c(OC(F)F)cc3o2)c1C` [Example 248, ((6-(difluoromethoxy)-2-(3″-fluoro-2,2′-dimethyl-4″-(((S)-3-phenylpyrrolidin-1-yl)methyl)-[1,1′:3′,1″-terphenyl]-3-yl)benzo[d]oxazol-5-yl)methyl)proline] showed a half-maximal inhibitory concentration (IC50) at PD-1/PD-L1 (range symbols) of 5 to 50 nM. Besides, in series [1], the concentration at 0.5 h came to 89 ng/mL, the concentration at 2 h is 271 ng/mL and the concentration at 4 h was found to be 369 ng/mL.
Take `Cc1c(-c2ccc(CN3CC[C@H](COCc4ccccc4)C3)c(F)c2)cccc1-c1cccc(-c2nc3cc(CN4CCC[C@H]4C(=O)O)c(OC(F)F)cc3o2)c1C` [Example 252, ((2-(4″-(((S)-3-((benzyloxy)methyl)pyrrolidin-1-yl)methyl)-3″-fluoro-2,2′-dimethyl-[1,1′:3′,1″- terphenyl]-3-yl)-6-(difluoromethoxy)benzo[d]oxazol-5-yl)methyl)proline]: the IC50 at PD-1/PD-L1 (range symbols) lay within 0.1 to 5 nM. Moreover, in series [1], the concentration at 0.5 h is 694 ng/mL, the concentration at 2 h worked out at 2870 ng/mL and the concentration at 4 h was 4150 ng/mL.
Turning to `Cc1c(-c2nc3cc(CN4CCC[C@H]4C(=O)O)c(OC(F)F)cc3o2)cccc1-c1cccc(-c2ccc(CN3CCCC3)cc2F)c1C` [Example 253, ((6-(difluoromethoxy)-2-(2″-fluoro-2,2′-dimethyl-4″-(pyrrolidin-1-ylmethyl)-[1,1′:3′,1″- terphenyl]-3-yl)benzo[d]oxazol-5-yl)methyl)-L-proline], at PD-1/PD-L1 (numeric values), the IC50 was 4.7 nM. In series [1], this compound returned a concentration at 0.5 h of 42.3 ng/mL, a concentration at 2 h of 199 ng/mL and a concentration at 4 h of 181 ng/mL.
On PD-1/PD-L1 (numeric values), `COc1nc(-c2cccc(-c3cccc(-c4nc5cc(CN6CCC[C@H]6C(=O)O)c(OC(F)F)cc5o4)c3C)c2C)ccc1CN1CC[C@@H](C)C1` [Example 272, ((6-(difluoromethoxy)-2-(3′-(6-methoxy-5-(((R)-3-methylpyrrolidin-1-yl)methyl)pyridin-2-yl)-2,2′-dimethyl-[1,1′-biphenyl]-3-yl)benzo[d]oxazol-5-yl)methyl)-L-proline] showed an IC50 of 1.9 nM. Besides, in series [1], the concentration at 0.5 h amounted to 66.1 ng/mL, the concentration at 2 h is 198 ng/mL and the concentration at 4 h stood at 141 ng/mL.
For the compound `COc1nc(-c2cccc(-c3cccc(-c4nc5cc(CN6CCC[C@H]6C(=O)O)c(OC(F)F)cc5o4)c3C)c2C)ccc1CNCC1CCC(=O)N1` (stereo partly drawn) [Example 276, ((6-(difluoromethoxy)-2-(3′-(6-methoxy-5-((((5-oxopyrrolidin-2-yl)methyl)amino)methyl)pyridin-2-yl)-2,2′-dimethyl-[1,1′-biphenyl]-3-yl)benzo[d]oxazol-5-yl)methyl)-L-proline], at PD-1/PD-L1 (range symbols), the half-maximal inhibitory concentration (IC50) was 0.1 to 5 nM. In series [1], this compound returned a concentration at 0.5 h of 131 ng/mL, a concentration at 2 h of 291 ng/mL and a concentration at 4 h of 238 ng/mL.
With `Cc1c(-c2nc3cc(CN4CCC[C@H]4C(=O)O)c(OC(F)F)cc3o2)cccc1-c1cccc(-c2ccc(CN3CCCC3)s2)c1C` [Example 280, ((6-(difluoromethoxy)-2-(2,2′-dimethyl-3′-(5-(pyrrolidin-1-ylmethyl)thiophen-2-yl)-[1,1′-biphenyl]-3-yl)benzo[d]oxazol-5-yl)methyl)-L-proline], the IC50 at PD-1/PD-L1 (numeric values) is 5.7 nM. In series [1], this compound displayed a concentration at 0.5 h of 33.6 ng/mL, a concentration at 2 h of 171 ng/mL and a concentration at 4 h of 113 ng/mL.
The compound `Cc1c(-c2cnc(N3CCCC3)nc2)cccc1-c1cccc(-c2nc3cc(CN4CCC[C@H]4C(=O)O)c(OC(F)F)cc3o2)c1C` [Example 283, ((6-(difluoromethoxy)-2-(2,2′-dimethyl-3′-(2-(pyrrolidin-1-yl)pyrimidin-5-yl)-[1,1′-biphenyl]-3-yl)benzo[d]oxazol-5-yl)methyl)-L-proline] displayed an IC50 on PD-1/PD-L1 (range symbols) of 5 to 50 nM. In series [1], this compound registered a concentration at 0.5 h of 522 ng/mL, a concentration at 2 h of 1170 ng/mL and a concentration at 4 h of 965 ng/mL.
In the same order, the values of `COc1nc(-c2cccc(-c3cccc(-c4nc5cc(CN6CCC[C@H]6C(=O)O)c(OC(F)F)cc5o4)c3C)c2C)cnc1CN1CCCC1` [Example 285, ((6-(difluoromethoxy)-2-(3′-(6-methoxy-5-(pyrrolidin-1-ylmethyl)pyrazin-2-yl)-2,2′-dimethyl-[1,1′-biphenyl]-3-yl)benzo[d]oxazol-5-yl)methyl)-L-proline] are 0.1 to 5 nM, 39.1 ng/mL, 80 ng/mL and 41.8 ng/mL.
For the compound `COc1nc(-c2cccc(-c3cccc(-c4nc5cc(CN6CCC[C@H]6C(=O)O)c(OC(F)F)cc5o4)c3C)c2C)cnc1CN1CC[C@@H](C)C1` [Example 286, ((6-(difluoromethoxy)-2-(3′-(6-methoxy-5-(((R)-3-methylpyrrolidin-1-yl)methyl)pyrazin-2-yl)-2,2′-dimethyl-[1,1′-biphenyl]-3-yl)benzo[d]oxazol-5-yl)methyl)-L-proline], the IC50 at PD-1/PD-L1 (range symbols) is 0.1 to 5 nM. Besides, in series [1], the concentration at 0.5 h was found to be 20.5 ng/mL, the concentration at 2 h was found to be 73.8 ng/mL and the concentration at 4 h stood at 52.2 ng/mL.
`Cc1c(-c2ccc3c(c2)CCNC3)cccc1-c1cccc(-c2nc3cc(CN4CCC[C@H]4C(=O)O)c(OC(F)F)cc3o2)c1C` [Example 288, ((6-(difluoromethoxy)-2-(2,2′-dimethyl-3′-(1,2,3,4-tetrahydroisoquinolin-6-yl)-[1,1′-biphenyl]-3-yl)benzo[d]oxazol-5-yl)methyl)-L-proline] showed a half-inhibitory concentration (IC50) at PD-1/PD-L1 (numeric values) of 1.5 nM. In series [1], this compound yielded a concentration at 0.5 h of 8.36 ng/mL, a concentration at 2 h of 25.4 ng/mL and a concentration at 4 h of 9.68 ng/mL.
The corresponding values for `Cc1c(-c2ccc3[nH]c(N)nc3c2)cccc1-c1cccc(-c2nc3cc(CN4CCC[C@H]4C(=O)O)c(OC(F)F)cc3o2)c1C` [Example 293, ((2-(3′-(2-amino-1H-benzo[d]imidazol-5-yl)-2,2′-dimethyl-[1,1′-biphenyl]-3-yl)-6-(difluoromethoxy)benzo[d]oxazol-5-yl)methyl)-L-proline] are 11 nM, 6.68 ng/mL, 10.8 ng/mL and 3.57 ng/mL.
Compound `COc1nc(-c2cccc(-c3cccc(-c4nc5cc(CN6CCC[C@H]6C(=O)O)c(OC(F)F)cc5o4)c3C)c2C)ccc1CN1CCC(C)(C)C1` [Example 294, ((6-(difluoromethoxy)-2-(3′-(5-((3,3-dimethylpyrrolidin-1-yl)methyl)-6-methoxypyridin-2-yl)-2,2′-dimethyl-[1,1′-biphenyl]-3-yl)benzo[d]oxazol-5-yl)methyl)-L-proline] returned a 50% inhibitory concentration (IC50) at PD-1/PD-L1 (range symbols) of 0.1 to 5 nM. In series [1], the concentration at 0.5 h is 80.4 ng/mL, the concentration at 2 h came to 193 ng/mL and the concentration at 4 h was 186 ng/mL.
In the same order, the values of `Cc1c(-c2nc3cc(CN4CCC[C@H]4C(=O)O)c(OC(F)F)cc3o2)cccc1-c1cccc(-c2nc3cc(CN4CCCC4)c(F)c(F)c3n2CC(F)(F)F)c1C` [Example 299, ((2-(3′-(6,7-difluoro-5-(pyrrolidin-1-ylmethyl)-1-(2,2,2-trifluoroethyl)-1H-benzo[d]imidazol-2-yl)-2,2′-dimethyl-[1,1′-biphenyl]-3-yl)-6-(difluoromethoxy)benzo[d]oxazol-5-yl)methyl)-L-proline] are more than 50 nM, 27.9 ng/mL, 212 ng/mL and 89.2 ng/mL.
The compound `Cc1nc(-c2cccc(-c3cccc(-c4nc5cc(CN6CCC[C@H]6C(=O)O)c(OC(F)F)cc5o4)c3C)c2C)oc1CN1CCCC1` [Example 304, ((6-(difluoromethoxy)-2-(2,2′-dimethyl-3′-(4-methyl-5-(pyrrolidin-1-ylmethyl)oxazol-2-yl)-[1,1′-biphenyl]-3-yl)benzo[d]oxazol-5-yl)methyl)-L-proline] gave a half-inhibitory concentration (IC50) on PD-1/PD-L1 (numeric values) of 27 nM. For the same compound, in series [1], the concentration at 0.5 h came out at 131 ng/mL, the concentration at 2 h came out at 150 ng/mL and the concentration at 4 h was 74.2 ng/mL.
